pIC50: −log10 of the molar value.
target: T1, human recombinant LPA2 expressed in CHO cells (Homo sapiens, UniProt Q9HBW0); assay: FLIPR calcium mobilization assay, LPA2 antagonism in CHO-hLPA2 cells; assay type: cell-based; conditions: LPA EC80 stimulation, potency class, read-out: LPA2 IC50
T1 construct: expressed in transfected cells; host or cells: CHO cells (CHO-hLPA2 cell line)
Protocol: The effectiveness of compounds of the present invention as LPA2 antagonist can be determined at the human recombinant LPA2 expressed in CHO cells, using a FLIPR assay in 384 well format.
CHO-hLPA2 cell lines are cultured in a humidified incubator at 5% CO2 in DMEM/F-12 (1:1) MIXTURE with 2 mM Glutamax, supplemented with 10% of Foetal Bovine Serum, 1 mM Sodium Pyruvate, 11 mM Hepes and 1× Penicillin/Streptomycin. CHO hLPA2 cells are seeded into black walled clear-bottom 384-well plates (#781091, Greiner Bio-One GmbH) at a density of 7,500 cells per well in 50 μl culture media and grown overnight in a 37° C. humidified CO2-incubator. Serial dilutions (1:3 or 1:4, 11 points CRC) of compounds are performed in 100% DMSO at 200× the final concentration. The compounds are diluted 1:50 prior to the experiment with Assay Buffer (20 mM HEPES, 145 mM NaCl, 5 mM KCl, 5.5 mM glucose, 1 mM MgCl2 and 2 mM CaCl2), pH 7.4 containing 0.01% Pluronic F-127) to obtain a solution corresponding to […] the final concentration in the assay (4×, 2% DMSO). The final concentration of DMSO in the assay will be 0.5% in each well. Medium is removed by aspiration and cells are then incubated with 30 μl of a loading solution containing 5 μM of the cytoplasmic Ca2+ indicator Cal-520 AM in Assay Buffer containing 2.5 mM probenecid for 30 min at 37° C. incubator (cell loading). The loaded cell plates are transferred into the FLIPR instrument and calcium responses are monitored during the on-line addition protocols. For testing of compounds, after the cell loading, 10 μl/well of 4× antagonists' solution was added onto the cells. After 30 min pre-incubation (at 37° C.), 10 μl/well of 5× concentrated LPA EC80 was added and Ca2+ mobilization responses was followed during the on-line addition protocol. Intracellular peak fluorescence values subtracted by baseline fluorescence are exported and analysed to determine IC50 values, respectively. The calcium response is expressed as percentage of the maximal inhibition of the EC80 agonist response.
The raw data obtained in unstimulated controls (DMSO, no LPA) are set as “100% inhibition”, while the raw data obtained in negative controls, i.e. in the absence of compounds and stimulating with LPA EC80, are set as “0% inhibition”.
The raw data (peak height expressed as relative fluorescence units) are normalized and transformed into “percent of inhibition”. Curve fitting and pIC50 (−Log IC50) estimations are carried out using a four-parameter logistic model using XLfit Software.

T1 sequence (Q9HBW0 whole entry): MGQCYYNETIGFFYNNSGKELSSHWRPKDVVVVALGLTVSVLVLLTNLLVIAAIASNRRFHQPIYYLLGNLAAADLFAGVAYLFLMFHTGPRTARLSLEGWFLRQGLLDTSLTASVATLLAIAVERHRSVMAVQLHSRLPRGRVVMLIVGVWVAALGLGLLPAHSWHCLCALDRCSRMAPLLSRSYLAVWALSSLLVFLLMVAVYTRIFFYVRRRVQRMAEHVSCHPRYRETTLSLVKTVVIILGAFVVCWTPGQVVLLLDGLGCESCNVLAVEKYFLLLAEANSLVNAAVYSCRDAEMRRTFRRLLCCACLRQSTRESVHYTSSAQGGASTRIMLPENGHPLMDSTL

Row | SMILES | pIC50
1 | COC(=O)Nc1nc(C)c(S(=O)(=O)N2CCN(C[C@H](C)NC(=O)c3cc(-c4sc(C)nc4C)ccn3)CC2)s1 [Example 4, methyl N-[5-({4-[(2S)-2-{[4-(2,4-dimethyl-1,3-thiazol-5-yl)pyridin-2-yl]formamido}propyl]piperazin-1-yl}sulfonyl)-4-methyl-1,3-thiazol-2-yl]carbamate] | > 6.00
2 | COC(=O)Nc1nc(C)c(S(=O)(=O)N2CCN(C[C@H](C)NC(=O)c3cccc(-c4sc(C)nc4C)n3)CC2)s1 [Example 6, methyl N-[5-({4-[(2S)-2-{[6-(2,4-dimethyl-1,3-thiazol-5-yl)pyridin-2-yl]formamido}propyl]piperazin-1-yl}sulfonyl)-4-methyl-1,3-thiazol-2-yl]carbamate] | > 6.00
3 | COC(=O)Nc1nc(C)c(S(=O)(=O)N2CCN(C[C@H](C)NC(=O)c3cccc(-c4cn(C)nc4C(F)(F)F)c3)CC2)s1 [Example 9, methyl N-[4-methyl-5-({4-[(2S)-2-({3-[1-methyl-3-(trifluoromethyl)-1H-pyrazol-4-yl]phenyl}formamido)propyl]piperazin-1-yl}sulfonyl)-1,3-thiazol-2-yl]carbamate] | > 6.00
4 | COC(=O)Nc1nc(C)c(S(=O)(=O)N2CCN(C[C@H](C)NC(=O)c3cc(-c4cccc(CN(C)C)c4)cs3)CC2)s1 [Example 10, methyl N-[5-({4-[(2S)-2-[(4-{3-[(dimethylamino)methyl]phenyl}thiophen-2-yl)formamido]propyl]piperazin-1-yl}sulfonyl)-4-methyl-1,3-thiazol-2-yl]carbamate] | > 6.00
5 | Cc1nc(C)c(-c2cccc(C(=O)N[C@@H](C)CN3CCN(S(=O)(=O)c4ccc5[nH]c(=O)sc5c4)CC3)c2)s1 [Example 11, 3-(2,4-dimethyl-1,3-thiazol-5-yl)-N-[(2S)-1-{4-[(2-oxo-2,3-dihydro-1,3-benzothiazol 6-yl)sulfonyl]piperazin-1-yl}propan-2-yl]benzamide] | > 6.00

Other lines, results leading:

Row | pIC50 | SMILES
6 | > 8.00 | COC(=O)Nc1nc(C)c(S(=O)(=O)N2CCN(C[C@H](C)NC(=O)c3cccc(-c4sc(C)nc4C)c3)CC2)s1 [Example 1, methyl N-[5-({4-[(2S)-2-{[3-(2,4-dimethyl-1,3-thiazol-5-yl)phenyl]formamido}propyl]piperazin-1-yl}sulfonyl)-4-methyl-1,3-thiazol-2-yl]carbamate]
7 | 7.00 to 8.00 | Cc1cc(-c2ccc(S(=O)(=O)N3CCN(C[C@H](C)NC(=O)c4cc(-c5sc(C)nc5C)ccc4F)CC3)s2)on1 [Example 2, 5-(2,4-dimethyl-1,3-thiazol-5-yl)-2-fluoro-N-[(2 S)-1-(4-{[5-(3-methyl-1,2-oxazol-5-yl)thiophen-2-yl]sulfonyl}piperazin-1-yl)propan-2-yl]benzamide]
8 | 7.00 to 8.00 | Cc1cc(-c2ccc(S(=O)(=O)N3CCN(C[C@H](C)NC(=O)c4cc(-c5sc(C)nc5C)ccn4)CC3)s2)on1 [Example 3, 4-(2,4-dimethyl-1,3-thiazol-5-yl)-N-[(2S)-1-(4-{[5-(3-methyl-1,2-oxazol-5-yl)thiophen-2-yl]sulfonyl}piperazin-1-yl)propan-2-yl]pyridine-2-carboxamide]
9 | 7.00 to 8.00 | COC(=O)Nc1nc(C)c(S(=O)(=O)N2CCN(C[C@H](C)NC(=O)c3cc(-c4sc(C)nc4C)ccc3F)CC2)s1 [Example 5, methyl N-[5-({4-[(2S)-2-{[5-(2,4-dimethyl-1,3-thiazol-5-yl)-2-fluorophenyl]formamido}propyl]piperazin-1-yl}sulfonyl)-4-methyl-1,3-thiazol-2-yl]carbamate]
10 | 7.00 to 8.00 | COC(=O)Nc1nc(C)c(S(=O)(=O)N2CCN(C[C@H](C)NC(=O)c3cccc(-c4cccc(CN(C)C)c4)c3)CC2)s1 [Example 7, methyl N-[5-({4-[(2S)-2-({3′-[(dimethylamino)methyl]-[1,1′-biphenyl]-3-yl}formamido)propyl]piperazin-1-yl}sulfonyl)-4-methyl-1,3-thiazol-2-yl]carbamate]
11 | 7.00 to 8.00 | COC(=O)Nc1nc(C)c(S(=O)(=O)N2CCN(C[C@H](C)NC(=O)c3cccc(-c4ccc(C)nc4)c3)CC2)s1 [Example 8, methyl N-[4-methyl-5-({4-[(2S)-2-{[3-(6-methylpyridin-3-yl)phenyl] formamido}propyl]piperazin-1-yl}sulfonyl)-1,3-thiazol-2-yl]carbamate]

same assay, conditions: compound called inactive on receptor LPA2, read-out: IC50 on LPA2 receptor

Row | pIC50 | SMILES
12 | < 5.52 | COC(=O)Nc1nc(C)c(S(=O)(=O)N2CCN(C[C@H](C)Nc3ncnc4ncccc34)CC2)s1 [Comparative Example A, Methyl (S)-(4-methyl-5-((4-(2-(pyrido[2,3-d]pyrimidin-4 ylamino)propyl)piperazin-1-yl)sulfonyl)thiazol-2-yl)carbamate, reference compound]

Reference: patent US20230043672A1, “AROMATIC AMIDO DERIVATIVES AS LPA RECEPTOR 2 INHIBITORS” (CHIESI FARMACEUTICI S.P.A., priority 2019, published 2023)
